For one assay, the system named is tobacco plants. Description: Carotenoid content (phytoene accumulation) of treated tobacco plants, HPLC. In kind it is in vivo, Nicotiana tabacum. Particulars: tobacco plants treated with norflurazon; comparator for PDS antisense lines.
A further assay concerns PDS. Particulars: in vitro (Trebst, 1997); cited from earlier work.
Another assay has as its target Erwinia uredovora PSY (Pantoea ananas, UniProt P21683). Particulars: overexpressed Erwinia uredovora PSY (Neudert, 1998); read-out: pI valve (inhibition of phytoene synthase); cited from earlier work.

Erwinia uredovora PSY, sequence (P21683 whole entry): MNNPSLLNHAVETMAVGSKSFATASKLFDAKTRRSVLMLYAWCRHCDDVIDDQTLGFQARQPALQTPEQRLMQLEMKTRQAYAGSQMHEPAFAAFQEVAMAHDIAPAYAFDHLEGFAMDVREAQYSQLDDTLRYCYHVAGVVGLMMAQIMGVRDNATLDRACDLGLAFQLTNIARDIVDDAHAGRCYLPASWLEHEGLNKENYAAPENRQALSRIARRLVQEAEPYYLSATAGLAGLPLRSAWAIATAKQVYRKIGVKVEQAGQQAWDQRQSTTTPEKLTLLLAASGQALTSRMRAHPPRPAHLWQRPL

As to `CNc1cnn(-c2cccc(C(F)(F)F)c2)c(=O)c1Cl` [norflurazon], in the assay on tobacco plants, the accumulation of phytoene result is “very high accumulation of phytoene”. The “photosystem II activity following inhibition of PDS” value in the assay with PDS is “loss of photosystem II activity”. As for `C=C(CC[C@]12O[C@H](C(=O)O)[C@@](O)(C(=O)O)[C@](C(=O)O)(O1)[C@H](OC(=O)/C=C/[C@@H](C)C[C@@H](C)CC)[C@H]2O)[C@@H](OC(C)=O)[C@H](C)Cc1ccccc1` [squalestatin], the IC50 at Erwinia uredovora PSY was 15 µM. On to fluridone, for which, in the assay on PDS, the “photosystem II activity following inhibition of PDS” value is listed as “loss of photosystem II activity”.

The record behind these values is US20020128464A1, “Method of finding modulators of enzymes of the carotenoid biosynthetic pathway” (priority 2000, published 2002).
